molecular target: T1, Cdc7 (BEV coexpressed huCDC7/DBF4) (Homo sapiens, UniProt O00311); assay: Cdc7 enzyme inhibition assay ([33P]ATP, biotinylated peptide substrate, FlashPlate); assay type: biochemical; details: Table 3; enzyme inhibition data (Ki)
T1 construct: made in house; host or cells: BEV (baculovirus expression vector) co-expression; insect cells are implied but no cell line is named
Procedure: Cdc7 (BEV coexpressed huCDC7/DBF4) is prepared internally. Cdc7 assays are conducted as follows with final concentrations as listed. […] Reactions are quenched after 1 hr by the addition of 90 μL stop buffer (50 mM EDTA, 2M NaCl). […] (Ki) for exemplary compounds.

T1 sequence (O00311 whole entry): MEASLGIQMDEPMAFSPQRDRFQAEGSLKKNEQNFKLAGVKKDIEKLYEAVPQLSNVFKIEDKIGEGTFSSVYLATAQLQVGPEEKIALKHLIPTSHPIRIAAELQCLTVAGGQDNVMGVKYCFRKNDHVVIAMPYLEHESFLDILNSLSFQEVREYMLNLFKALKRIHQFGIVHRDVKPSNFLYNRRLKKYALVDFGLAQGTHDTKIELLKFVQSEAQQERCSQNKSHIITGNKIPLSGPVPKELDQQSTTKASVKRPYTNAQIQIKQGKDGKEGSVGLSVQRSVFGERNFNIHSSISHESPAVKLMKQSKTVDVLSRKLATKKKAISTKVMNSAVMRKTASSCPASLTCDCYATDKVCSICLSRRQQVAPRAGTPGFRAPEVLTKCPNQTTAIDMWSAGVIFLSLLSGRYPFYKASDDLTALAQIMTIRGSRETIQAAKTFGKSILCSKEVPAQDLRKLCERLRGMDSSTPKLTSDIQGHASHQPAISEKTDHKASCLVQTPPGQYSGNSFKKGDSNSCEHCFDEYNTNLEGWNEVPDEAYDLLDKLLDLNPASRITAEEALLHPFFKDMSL
T1 sequence (Q9UBU7 whole entry partner): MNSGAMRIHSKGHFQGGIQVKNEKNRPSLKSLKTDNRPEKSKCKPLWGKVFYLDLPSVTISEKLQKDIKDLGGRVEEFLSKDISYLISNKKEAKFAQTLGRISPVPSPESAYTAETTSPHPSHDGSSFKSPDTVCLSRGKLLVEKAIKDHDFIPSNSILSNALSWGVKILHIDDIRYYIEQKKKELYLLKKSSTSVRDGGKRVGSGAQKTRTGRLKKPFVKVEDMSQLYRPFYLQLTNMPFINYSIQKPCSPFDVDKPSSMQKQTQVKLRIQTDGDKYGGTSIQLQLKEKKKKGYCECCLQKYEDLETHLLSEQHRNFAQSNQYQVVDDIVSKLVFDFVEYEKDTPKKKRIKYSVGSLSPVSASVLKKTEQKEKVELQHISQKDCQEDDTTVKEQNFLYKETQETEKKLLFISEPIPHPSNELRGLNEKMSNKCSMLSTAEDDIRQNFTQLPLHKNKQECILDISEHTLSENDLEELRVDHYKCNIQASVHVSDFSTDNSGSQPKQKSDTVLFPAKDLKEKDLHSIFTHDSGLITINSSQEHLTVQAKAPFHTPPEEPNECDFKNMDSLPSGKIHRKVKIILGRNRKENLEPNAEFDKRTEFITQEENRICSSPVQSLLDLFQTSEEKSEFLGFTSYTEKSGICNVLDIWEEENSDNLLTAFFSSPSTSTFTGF

Ki | SMILES
10 to 100 nM | CC(C)(CNc1cc(-c2c[nH]c3ncccc23)cc(Cl)n1)CNS(=O)(=O)c1cccnc1 [Example 81, N-(3-{[6-chloro-4-(1H-pyrrolo[2,3-b]pyridin-3-yl)pyridin-2-yl]amino}-2,2-dimethylpropyl)pyridine-3-sulfonamide]
< 10 nM | CC(C)(CNc1cc(-c2c[nH]c3ncccc23)cc(Cl)n1)CNS(=O)(=O)C1CC1 [Example 82, N-(3-{[6-chloro-4-(1H-pyrrolo[2,3-b]pyridin-3-yl)pyridin-2-yl]amino}-2,2-dimethylpropyl)cyclopropanesulfonamide]
< 10 nM | O=S(=O)(NC1CCCC(Nc2cc(-c3c[nH]c4ncccc34)cc(Cl)n2)C1)c1cccs1 (stereo not drawn) [Example 83, N-(3-{[6-chloro-4-(1H-pyrrolo[2,3-b]pyridin-3-yl)pyridin-2-yl]amino}cyclohexyl)thiophene-2-sulfonamide]
< 10 nM | CCCCC(=O)Nc1cc(-c2c[nH]c3ncccc23)cc(Cl)n1 [Example 84, N-[6-chloro-4-(1H-pyrrolo[2,3-b]pyridin-3-yl)pyridin-2-yl]pentanamide]
< 10 nM | O=C(Nc1cc(-c2c[nH]c3ncccc23)cc(Cl)n1)C1CCCCC1 [Example 85, N-[6-chloro-4-(1H-pyrrolo[2,3-b]pyridin-3-yl)pyridin-2-yl]cyclohexanecarboxamide]
< 10 nM | O=C(Nc1cc(-c2c[nH]c3ncccc23)cc(Cl)n1)c1ccccc1 [Example 86, N-[6-chloro-4-(1H-pyrrolo[2,3-b]pyridin-3-yl)pyridin-2-yl]benzamide]
< 10 nM | O=S(=O)(NCCNc1cc(-c2c[nH]c3ncccc23)cc(Cl)n1)C1CC1 [Example 89, N-(2-{[6-chloro-4-(1H-pyrrolo[2,3-b]pyridin-3-yl)pyridin-2-yl]amino}ethyl)cyclopropanesulfonamide]
< 10 nM | O=S(=O)(NCCNc1cc(-c2c[nH]c3ncccc23)cc(Cl)n1)c1cccnc1 [Example 90, N-(2-{[6-chloro-4-(1H-pyrrolo[2,3-b]pyridin-3-yl)pyridin-2-yl]amino}ethyl)pyridine-3-sulfonamide]
< 10 nM | Clc1cc(-c2c[nH]c3ncccc23)cc(NC2CCC2)n1 [Example 92, 6-chloro-N-cyclobutyl-4-(1H-pyrrolo[2,3-b]pyridin-3-yl)pyridin-2-amine]
< 10 nM | CN(C)[C@H]1CC[C@H](Nc2cc(-c3c[nH]c4ncccc34)cc(Cl)n2)CC1 [Example 93, trans-N′-[6-chloro-4-(1H-pyrrolo[2,3-b]pyridin-3-yl)pyridin-2-yl]-N,N-dimethylcyclohexane-1,4-diamine]
< 10 nM | CCN1CCCC(CNc2cc(-c3c[nH]c4ncccc34)cc(Cl)n2)C1 (stereo not drawn) [Example 94, 6-chloro-N-[(1-ethylpiperidin-3-yl)methyl]-4-(1H-pyrrolo[2,3-b]pyridin-3-yl)pyridin-2-amine]
< 10 nM | Clc1cc(-c2c[nH]c3ncccc23)cc(NCC2CCCN(C3CCC3)C2)n1 (stereo not drawn) [Example 95, 6-chloro-N-[(1-cyclobutylpiperidin-3-yl)methyl]-4-(1H-pyrrolo[2,3-b]pyridin-3-yl)pyridin-2-amine]
< 10 nM | Clc1cc(-c2c[nH]c3ncccc23)cc(NCC2CCCN(Cc3cccnc3)C2)n1 (stereo not drawn) [Example 96, 6-chloro-N-{[1-(pyridin-3-ylmethyl)piperidin-3-yl]methyl}-4-(1H-pyrrolo[2,3-b]pyridin-3-yl)pyridin-2-amine]
< 10 nM | CS(=O)(=O)N1CCCC(CNc2cc(-c3c[nH]c4ncccc34)cc(Cl)n2)C1 (stereo not drawn) [Example 97, 6-chloro-N-((1-(methylsulfonyl)piperidin-3-yl)methyl)-4-(1H-pyrrolo[2,3-b]pyridin-3-yl)pyridin-2-amine]
< 10 nM | CCNC(=O)N1CCCC(CNc2cc(-c3c[nH]c4ncccc34)cc(Cl)n2)C1 (stereo not drawn) [Example 98, 3-((6-chloro-4-(1H-pyrrolo[2,3-b]pyridin-3-yl)pyridin-2-ylamino)methyl)-N-ethylpiperidine-1-carboxamide]
< 10 nM | CNC(=O)N[C@H]1CC[C@H](Nc2cc(-c3c[nH]c4ncccc34)cc(Cl)n2)CC1 [Example 99, 1-(trans-4-{[6-chloro-4-(1H-pyrrolo[2,3-b]pyridin-3-yl)pyridin-2-yl]amino}cyclohexyl)-3-methylurea]
< 10 nM | CC(=O)N1CCCC(CNc2cc(-c3c[nH]c4ncccc34)cc(Cl)n2)C1 (stereo not drawn) [Example 100, 1-[3-({[6-chloro-4-(1H-pyrrolo[2,3-b]pyridin-3-yl)pyridin-2-yl]amino}methyl)piperidin-1-yl]ethanone]
< 10 nM | O=S(=O)(C1CC1)N1CCCC(CNc2cc(-c3c[nH]c4ncccc34)cc(Cl)n2)C1 (stereo not drawn) [Example 101, 6-chloro-N-{[1-(cyclopropylsulfonyl)piperidin-3-yl]methyl}-4-(1H-pyrrolo[2,3-b]pyridin-3-yl)pyridin-2-amine]

Ki | SMILES
< 10 nM | O=C(C1CC1)N1CCCC(Nc2cc(-c3c[nH]c4ncccc34)cc(Cl)n2)C1 (stereo not drawn) [Example 102, (3-{[6-chloro-4-(1H-pyrrolo[2,3-b]pyridin-3-yl)pyridin-2-yl]amino}piperidin-1-yl)(cyclopropyl)methanone]
< 10 nM | Clc1cc(-c2c[nH]c3ncccc23)cc(NC2CCCC(NCC3CC3)C2)n1 (stereo not drawn) [Example 103, N-[6-chloro-4-(1H-pyrrolo[2,3-b]pyridin-3-yl)pyridin-2-yl]-N′-(cyclopropylmethyl)cyclohexane-1,3-diamine]
< 10 nM | Clc1cc(-c2c[nH]c3ncccc23)cc(NC2CCCN(C3CCC3)C2)n1 (stereo not drawn) [Example 104, 6-chloro-N-(1-cyclobutylpiperidin-3-yl)-4-(1H-pyrrolo[2,3-b]pyridin-3-yl)pyridin-2-amine]
< 10 nM | Clc1cc(-c2c[nH]c3ncccc23)cc(N[C@H]2CC[C@H](NC3CCC3)CC2)n1 [Example 105, trans-N-[6-chloro-4-(1H-pyrrolo[2,3-b]pyridin-3-yl)pyridin-2-yl]-N′-cyclobutylcyclohexane-1,4-diamine]
< 10 nM | O=C(N[C@H]1CC[C@H](Nc2cc(-c3c[nH]c4ncccc34)cc(Cl)n2)CC1)[C@@H]1CCN1 [Example 106, (2S)—N-(trans-4-{[6-chloro-4-(1H-pyrrolo[2,3-b]pyridin-3-yl)pyridin-2-yl]amino}cyclohexyl)azetidine-2-carboxamide]
< 10 nM | O=C(Nc1cc(-c2c[nH]c3ncccc23)cc(Cl)n1)c1cccnc1 [Example 107, N-[6-chloro-4-(1H-pyrrolo[2,3-b]pyridin-3-yl)pyridin-2-yl]pyridine-3-carboxamide]
< 10 nM | Clc1cc(-c2c[nH]c3ncccc23)cc(N[C@H]2CC[C@H](NCC3CC3)CC2)n1 [Example 109, trans-N-[6-chloro-4-(1H-pyrrolo[2,3-b]pyridin-3-yl)pyridin-2-yl]-N′-(cyclopropylmethyl)cyclohexane-1,4-diamine]
< 10 nM | O=C(Nc1cc(-c2c[nH]c3ncccc23)cc(Cl)n1)C1CCNCC1 [Example 112, N-[6-chloro-4-(1H-pyrrolo[2,3-b]pyridin-3-yl)pyridin-2-yl]piperidine-4-carboxamide]
< 10 nM | CC(=O)NCC(C)(C)CNc1cc(-c2c[nH]c3ncccc23)cc(Cl)n1 [Example 113, N-(3-{[6-chloro-4-(1H-pyrrolo[2,3-b]pyridin-3-yl)pyridin-2-yl]amino}-2,2-dimethylpropyl)acetamide]
< 10 nM | CN(C)CC(=O)N[C@H]1CC[C@H](Nc2cc(-c3c[nH]c4ncccc34)cc(Cl)n2)CC1 [Example 114, N-(trans-4-{[6-chloro-4-(1H-pyrrolo[2,3-b]pyridin-3-yl)pyridin-2-yl]amino}cyclohexyl)-N^2,N^2-dimethylglycinamide]
< 10 nM | O=C1C[C@@H](C(=O)N[C@H]2CC[C@H](Nc3cc(-c4c[nH]c5ncccc45)cc(Cl)n3)CC2)N1 [Example 115, (2S)—N-(trans-4-{[6-chloro-4-(1H-pyrrolo[2,3-b]pyridin-3-yl)pyridin-2-yl]-amino}cyclohexyl)-4-oxo azetidine-2-carboxamide]
< 10 nM | CN[C@@H](C)C(=O)N[C@H]1CC[C@H](Nc2cc(-c3c[nH]c4ncccc34)cc(Cl)n2)CC1 [Example 116, N-(trans-4-{[6-chloro-4-(1H-pyrrolo[2,3-b]pyridin-3-yl)pyridin-2-yl]amino}cyclohexyl)-N^2-methyl-L-alaninamide]
< 10 nM | O=C(C1CCN1)N1CCC(Nc2cc(-c3c[nH]c4ncccc34)cc(Cl)n2)CC1 (stereo not drawn) [Example 117, Azetidin-2-yl(4-{[6-chloro-4-(1H-pyrrolo[2,3-b]pyridin-3-yl)pyridin-2-yl]amino}piperidin-1-yl)methanone]
< 10 nM | CN(C)CC(=O)NC1CCCC(Nc2cc(-c3c[nH]c4ncccc34)cc(Cl)n2)C1 (stereo not drawn) [Example 118, N-(3-{[6-chloro-4-(1H-pyrrolo[2,3-b]pyridin-3-yl)pyridin-2-yl]amino}cyclohexyl)-N^2,N^2-dimethylglycinamide]
< 10 nM | CN1CCC[C@H]1C(=O)NC1CCCC(Nc2cc(-c3c[nH]c4ncccc34)cc(Cl)n2)C1 (stereo partly drawn) [Example 119, N-(3-{[6-chloro-4-(1H-pyrrolo[2,3-b]pyridin-3-yl)pyridin-2-yl]amino}cyclohexyl)-1-methyl-L-prolinamide]
< 10 nM | CN(C)CC(C)(C)CNc1cc(-c2c[nH]c3ncccc23)cc(Cl)n1 [Example 121, N′-[6-chloro-4-(1H-pyrrolo[2,3-b]pyridin-3-yl)pyridin-2-yl]-N,N,2,2-tetramethylpropane-1,3-diamine]
< 10 nM | CS(=O)(=O)Nc1cc(-c2c[nH]c3ncccc23)cc(Cl)n1 [Example 122, N-[6-chloro-4-(1H-pyrrolo[2,3-b]pyridin-3-yl)pyridin-2-yl]methanesulfonamide]
< 10 nM | O=S(=O)(Nc1cc(-c2c[nH]c3ncccc23)cc(Cl)n1)c1ccccc1 [Example 123, N-[6-chloro-4-(1H-pyrrolo[2,3-b]pyridin-3-yl)pyridin-2-yl]benzenesulfonamide]
